From publication PMC2768111 (British Journal of Cancer, 2009)
Where two headings read alike, the source gives them in different places.

Key:
PTK5 = PTK5 (Homo sapiens, UniProt P42685); test: IC50 Profiler Express kinase assay; format: biochemical
[1] = tested on: human bone marrow progenitor cells; test: Bone marrow progenitor growth; format: cell-based; conditions: CFU-GM, 240 h
TAO2 = target: T1, TAO2 (Homo sapiens, UniProt Q9UL54); test: IC50 Profiler Express kinase assay; format: biochemical
T1 sequence (Q9UL54 1-1235): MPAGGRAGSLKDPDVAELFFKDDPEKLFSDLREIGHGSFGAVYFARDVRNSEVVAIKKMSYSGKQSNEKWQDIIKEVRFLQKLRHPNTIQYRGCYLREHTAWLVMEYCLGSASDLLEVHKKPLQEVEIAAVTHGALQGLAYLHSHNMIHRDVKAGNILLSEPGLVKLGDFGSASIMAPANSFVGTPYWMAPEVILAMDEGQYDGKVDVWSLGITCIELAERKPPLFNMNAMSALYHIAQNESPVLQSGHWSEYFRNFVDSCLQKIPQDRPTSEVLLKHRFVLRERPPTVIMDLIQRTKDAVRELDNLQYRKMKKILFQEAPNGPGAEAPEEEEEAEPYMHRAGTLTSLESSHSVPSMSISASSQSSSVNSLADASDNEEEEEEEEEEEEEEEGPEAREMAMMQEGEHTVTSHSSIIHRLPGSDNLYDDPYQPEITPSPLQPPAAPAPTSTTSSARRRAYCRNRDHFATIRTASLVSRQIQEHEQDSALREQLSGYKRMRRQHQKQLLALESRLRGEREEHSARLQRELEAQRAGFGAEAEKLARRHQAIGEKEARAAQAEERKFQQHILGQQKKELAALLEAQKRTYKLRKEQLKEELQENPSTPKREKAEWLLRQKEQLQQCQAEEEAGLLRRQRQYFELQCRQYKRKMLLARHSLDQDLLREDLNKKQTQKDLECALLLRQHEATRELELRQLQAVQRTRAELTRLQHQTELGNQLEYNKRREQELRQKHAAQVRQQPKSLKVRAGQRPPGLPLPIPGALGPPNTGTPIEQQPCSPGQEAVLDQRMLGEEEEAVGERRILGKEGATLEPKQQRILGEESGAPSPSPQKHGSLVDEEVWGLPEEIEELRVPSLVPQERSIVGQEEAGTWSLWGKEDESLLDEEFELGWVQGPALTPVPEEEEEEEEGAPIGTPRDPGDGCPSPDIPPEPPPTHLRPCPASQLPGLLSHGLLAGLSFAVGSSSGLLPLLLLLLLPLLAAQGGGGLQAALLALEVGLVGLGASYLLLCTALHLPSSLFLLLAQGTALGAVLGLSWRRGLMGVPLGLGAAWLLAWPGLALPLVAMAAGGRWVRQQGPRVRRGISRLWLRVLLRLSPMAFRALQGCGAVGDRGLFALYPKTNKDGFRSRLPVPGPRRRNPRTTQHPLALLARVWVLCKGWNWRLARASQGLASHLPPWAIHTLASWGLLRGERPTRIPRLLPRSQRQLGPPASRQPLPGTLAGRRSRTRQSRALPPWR

PTK5, sequence (P42685 whole entry): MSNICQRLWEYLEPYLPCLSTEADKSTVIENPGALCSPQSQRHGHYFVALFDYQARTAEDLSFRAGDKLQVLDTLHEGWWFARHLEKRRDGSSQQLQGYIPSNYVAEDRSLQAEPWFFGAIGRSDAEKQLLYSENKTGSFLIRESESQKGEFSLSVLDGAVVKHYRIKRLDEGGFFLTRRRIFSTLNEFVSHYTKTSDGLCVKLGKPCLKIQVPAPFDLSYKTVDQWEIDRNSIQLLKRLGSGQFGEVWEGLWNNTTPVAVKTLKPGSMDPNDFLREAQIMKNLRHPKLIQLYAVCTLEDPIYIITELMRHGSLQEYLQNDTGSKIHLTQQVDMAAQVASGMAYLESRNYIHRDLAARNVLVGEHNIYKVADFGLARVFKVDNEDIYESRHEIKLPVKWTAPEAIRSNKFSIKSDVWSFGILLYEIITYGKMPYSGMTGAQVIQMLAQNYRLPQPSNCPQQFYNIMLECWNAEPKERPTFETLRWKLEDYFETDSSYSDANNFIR

| IC50 (PTK5) [nM] | IC50 (TAO2) [nM] | SMILES | IC50 ([1]; read-out: IC50, GM-CSF–driven CFU-GM formation) [nM] | IC50 ([1]; read-out: IC50, CFU-GM formation induced by GM-CSF) [nM] |
| --- | --- | --- | --- | --- |
| 97 | 382 | Cc1ccc(Nc2nccc(N(C)c3ccc4c(C)n(C)nc4c3)n2)cc1S(N)(=O)=O [Pazopanib] | 1000 | – |
| – | – | CCN(CC)CCNC(=O)c1c(C)[nH]c(/C=C2\C(=O)Nc3ccc(F)cc32)c1C [Sunitinib] | – | 32.7 |
